Assay results as given in patent US20080113956A1, “Substituted Porphyrins” (priority 1997, published 2008).

Columns and labels:
[1] = system: DNA; assay: SOD activity in vitro in the presence of DNA (DNA interaction); type: biochemical
Source text: The “ortho effect” also decreases the toxicity. It is well known that porphyrins, and particularly cationic porphyrins, interact with DNA and can act as DNA cleavers. This fact can be an issue in the use of metallo-porphyrins as anti-tumor drugs. The present mimetics avoid this interaction.
In order to maximize the decrease in toxicity due to interaction with DNA, two derivatives of the ortho compound have been prepared which carry four ethyl or four butyl groups (“4” and “5”, respectively).

[2] = Water solubility of the chloride salt; type: physicochemical; conditions: micelles were not observed
Experimental: The same procedure described above was used. 0.92 mL of 1-iodobutane (100 eq) was added and the mixture stirred at 100° C. for 7 days. […] The elemental analysis was thus performed on the hexafluorophosphate salt (non-viscous). The chlorine salt is water-soluble (micelles were not observed). UV(H2O) of the chloride salt, ε454.0 1.21×10^5 M^−1cm^−1. Elemental analysis, calcd. For MnC56H60N8P5F30.H2O: C (40.94), H (3.80), N (6.82); found: C (41.15), H (4.35), N (6.52).

[3] = SOD-like activity in vitro (xanthine/xanthine oxidase, ferricytochrome c; McCord and Fridovich); type: biochemical; conditions: Example VII
Experimental: (§1) SOD activity can be monitored in the presence and absence of EDTA using the method of McCord and Fridovich (J. Biol. Chem. 244:6049 (1969)). The efficacy of a mimetic can also be determined by measuring the effect of the mimetic on the aerobic growth of a SOD null E. coli strain versus a parental strain lacking the specific mutations. Specifically, parental E. coli (AB1157) and SOD null E. coli. (JI132) can be grown in M9 medium containing 0.2% casamino acids and 0.2% glucose at pH 7.0 and 37° C.; growth can be monitored in terms of turbidity followed at 700 nm.
The superoxide dismutase activity of the mimetics of the invention depends on a number of factors, including thermodynamic factors (eg the metal-centered redox-potential see FIG. 1)), and kinetic factors (eg electrostatic facilitation).
Superoxide dismuting activity. The SOD-like activities were measured using the xanthine/xanthine oxidase system as a source of O2^− and ferricytochrome c as its indicating scavenger (McCord et al, J. Biol. Chem. 244:6049 (1969)). O2— was produced at the rate of 1.2 μM per minute and reduction of ferricytochrome c was followed at 550 nm. Assays were conducted in presence of 0.1 mM EDTA in 0.05 M phosphate buffer (pH 7.8). Rate constants for the reaction of the compounds were based upon competition with […] cytochrome c, kcyt c=2.6×10^5 M^−1s^−1 (Butler et al, J. Biol. Chem. 257:10747 (1982)). All measurements were done at 25° C. Cytochrome c concentration was at least 10^3-fold higher than the concentrations of the SOD mimics and the rates were linear for at least two minutes, during which the compounds intercepted ˜100 equivalents of O2^−, thus confirming the catalytic nature of O2^− dismutation in presence of the mimics.
Superoxide dismuting activities. SOD-like activities were measured as described previously, based on competition with cytochrome c (McCord et al, J. Biol. Chem. 244:6049 (1969)). MnClxTE-2-PyP^5+ SOD-like activities are reported in Table 5, IC50 (M) representing the concentration for one unit of activity (or the concentration that causes 50% inhibition of cytochrome c reduction by O2^−) and kcat (M^−1s^−1) representing the rate constant for the superoxide dismutation reaction. The SOD-like activity per mole of MnCl4TE-2-PyP^5 is approximately 2-, 7- and 100-fold higher than MnOBTMPyP^4+, MnTM-2-PyP^5+ and MnTM-4PyP^5+, respectively (Faulkner et al, J. Biol. Chem. 269:23471 (1994); Batinic-Haberle et al, Arch. Biochem. Biophys. 343:225 (1997); Batinic-Haberle et al, J. Biol. Chem. 273:24521 (1998)). The SOD-like activity of MnCl4TE-2-PyP^5+ represents 20% of the activity of the Cu,Zn-SOD enzyme on a molar basis (40% per active site considering that the enzyme has two active sites) (Klug-Roth et al, J. Am. Chem. Soc. 95:2786 (1973)).

[4] = Electrochemistry: metal-centered redox potential; type: physicochemical; conditions: vs NHE; listed as 2
Experimental: Electrochemistry. The electrochemical characterization was performed as described previously on a Voltammetric Analyzer Model 600 (CH instrument) using a glassy carbon electrode (Ag/AgCl reference and Pt auxiliary electrodes), at 0.5 mM porphyrin, pH 7.8 (0.05 M phosphate buffer), 0.1 M NaCl. The potentials were standardized against potassium ferricyanide/potassium ferrocyanide couple (Batinic-Haberle et al, Arch. Biochem. Biophys. 343:225 (1997); Kolthof et al, J. Phys. Chem. 39:945 (1974)).
Electrochemistry. The metal-centered redox behavior of all metalloporphyrin products was reversible. The half-wave potentials (E^O1/2) were calculated as the average of the cathodic and anodic peaks and are given in mV vs NHE (Table 5). The average shift per chlorine is +55 mV (Table 5), which is in agreement with the values previously reported for H2TPP derivatives (between −50 and +70 mV) (Sen et al, Chem. Soc. Faraday Trans. 93:4281 (1997); Autret et al. J. Chem. Soc. Dalton Trans. 2793 (1996); Hariprasad et al, J. Chem. Soc. Dalton Trans. 3429 (1996); Tagliatesta et al, Inorg. Chem. 35:5570 (1996); Ghosh, J. Am. Chem. Soc. 117:4691 (1995); Takeuchi et al, J. Am. Chem. Soc. 116:9730 (1994); Binstead et al, Inorg. Chem. 30:1259 (1991); Giraudeau et al, J. Am. Chem. Soc. 101:3857 (1979)). This shift appears to be higher (˜+65 mV) between 0 and 1, and between 2 and 3 chlorines (Table 5). […] The manganese redox state of MnCl4TE-2-PyP^5 (E^O1/2=+448 mV) and MnOBTMPyP^4+ (E^O1.2=+480 mV) is 3+ and 2+, respectively. This difference may be explained by their difference in terms of redox potential (˜30 mV) but also by structural considerations, for instance an increased distortion of the porphyrin ring in the case of MnOBTMPyP^4+. (Batinic-Haberle et al, Arch. Biochem. Biophys. 343:225 (1997); Ochsenbein et al, Angew. Chem. Int. Ed. Engl. 33:348 (1994)).

[5] = system: SOD null E. coli (JI132); assay: Aerobic growth of SOD null E. coli strain versus parental strain; type: cell-based
Experimental: FIG. 3. SOD activity in vivo (E. coli) of 1, 2, 3* and 4* (20 μM) in minimal medium (mixture of atropoisomers, JI=SOD deficient strain, AB parental strain).
as §1
The activity in vivo of the mimetics of the invention can be tested on an E. coli strain deleted of the genes coding for both the MnSOD and FeSOD. In this assay, the efficacy of a mimetic is determined by measuring the effect of the mimetic on the aerobic growth of a SOD null E. coli strain versus a parental strain. Specifically, parental E. coli (AB1157) and SOD null E. coli. (JI132) are grown in M9 medium containing 0.2% casamino acids and 0.2% glucose at pH 7.0 and 37° C.; growth is monitored in terms of turbidity followed at 700 nm.

Compound | toxicity due to interaction with DNA, comparison between ortho derivatives ([1]; Table 2 and FIG. 3) | solubility in water [2] | rate of dismutation (kcat) [3] | interaction with DNA ([1]; SOD activity in vitro in the presence of DNA) | E1/2 one-electron metal-centered redox-potential [4] | aerobic growth (A700) of SOD null E. coli cells ([5]; 20 μM, glucose minimal medium (M9) plus 5 essential amino acids, JI132, listed as 2) | toxicity in vivo (E. coli) ([5]; FIG. 3)
CCCC[n+]1ccccc1-c1c2nc(c(-c3cccc[n+]3CCCC)c3ccc([n-]3)c(-c3cccc[n+]3CCCC)c3nc(c(-c4cccc[n+]4CCCC)c4ccc1[n-]4)C=C3)C=C2.[Mn+3] [compound 5, manganic meso-tetrakis-(N-butylpyridinium-2-yl)porphyrin] | did not show a further decrease in toxicity | water-soluble | – | – | – | – | –
manganese(III) 5,10,15,20-tetrakis(N-methylpyridyl)porphyrin [MnTM-3-PyP^5+] | – | – | 4.1e+06 M⁻¹ s⁻¹ | greatly decreased | +0.042 V | increase in A700 | decreased toxicity
